# According to patent US10159249B2 (BAYER CROPSCIENCE AKTIENGESELLSCHAFT, priority 2013, dated 2018):
# Read-outs that look alike come from different tables or passages of the source.
# Assays:
# Type in all cases: in vivo
# [1] = test system: maize transgenic T0 events expressing Axmi428H-Evo41; assay: Greenhouse trial, maize T0 plants, leaf area damage; conditions: for number of events, herbicide tolerance class 0 (41%-100% damaged leaf area) / number of events, herbicide tolerance class 1 (16%-40% damaged leaf area) / number of events, herbicide tolerance class 2 (6%-15% damaged leaf area) / number of events, herbicide tolerance class 3 (0%-5% damaged leaf area): maize Axmi428H-Evo41, six days after application
# Procedure: (§1) Regenerated T0 events from tissue culture were transplanted into two inch square pots with synthetic soil (Fafard® Mix) and controlled-released fertilizer (Haifa Multicote™; polymer-coated controlled-release fertilizer, NPK Pro 18-6-12+Micronutrients) and cultivated in the greenhouse (GH) under supplementary high pressure sodium light for 12 days at a maximum of 30° C. during the day and a minimum of 22° C. at night. Fully recovered plants were transferred into five inch square pots filled with synthetic soil and control released fertilizer under the same environmental conditions. […] All herbicide treatments were conducted in a DeVries Tracker Sprayer system with standard application protocols, which are well known in the art. As a spray control T0 events have been sprayed with the adjunvant mixture lacking the herbicide.
# (§2) Table 2 summarizes results of transgenic maize plants expressing mutants of the Pseudomonas fluorescens HPPD protein comprising an E (Glu)->P (Pro) replacement at position 335, a G (Gly)->W (Trp) replacement at position 336, a K (Lys)->A (Ala) replacement at position 339 and an A (Ala)->Q (Gln) replacement at position 340 (named PfHPPDEvo41 and being disclosed under SEQ ID No:16 in PCT/US2013/59598 (WO2014/043435) and being disclosed in present application under SEQ ID No. 29), or a mutated sequence of the Pseudomonas (=Comamonas) testosteroni HPPD protein comprising a E (Glu)->P (Pro) replacement at position 351, a G (Gly)->W (Trp) replacement at position 352, a K (Lys)->A (Ala) replacement at position 355 and an A (Ala)->Q (Gln) replacement at position 356 (named Axmi428H-Evo41 and being disclosed under SEQ ID No 56 in PCT/US2013/59598 (WO2014/043435) and being disclosed in present application as the HPPD protein sequence under SEQ ID No 33) or a mutated sequence of the Pseudomonas agarici HPPD protein comprising a E (Glu)->P (Pro) replacement at position 335, a G (Gly)->W (Trp) replacement at position 336, a K (Lys)->A (Ala) replacement at position 339 and an A (Ala)->Q (Gln) replacement at position 340 (named Axmi309H-EVO41 and being disclosed under SEQ ID No 54 in PCT/US2013/59598 (WO2014/043435) and being disclosed in present application as the HPPD protein sequence under SEQ ID No 37).
# (§3) A rating of “1” was assigned to plants having a moderate tolerance with 16% to 40% damage of total leaf area. A rating of “2” was assigned to plants with good tolerance within the range of 6% to 15% damage of total leaf area.
# [2] = test system: maize transgenic T0 events expressing PfHPPDEvo41; assay: as above; conditions: for number of events, herbicide tolerance class 0 (41%-100% damaged leaf area) / number of events, herbicide tolerance class 1 (16%-40% damaged leaf area) / number of events, herbicide tolerance class 2 (6%-15% damaged leaf area) / number of events, herbicide tolerance class 3 (0%-5% damaged leaf area): maize PfHPPDEvo41, six days after application
# Procedure: as §1, §2, §3
# [3] = test system: transgenic soybean T1 plants expressing PfHPPD-Evo33; conditions: for number of events, herbicide tolerance class 0 (41%-100% damaged leaf area) / number of events, herbicide tolerance class 1 (16%-40% damaged leaf area) / number of events, herbicide tolerance class 2 (6%-15% damaged leaf area) / number of events, herbicide tolerance class 3 (0%-5% damaged leaf area): soybean PfHPPD-Evo33, scored after 21 days
# [4] = test system: Euphorbia heterophylla; assay: Field trial, weed efficacy, post applied; conditions: application at 5 leaf stage, assessment 14 days after application
structure (smiles),measurement,setting,value
CSc1c(C(F)(F)F)ccc(C(=O)Nc2nnnn2C)c1Cl,share of tested events with high tolerance (5% or less bleached leaf area),"[1]; maize Axmi428H-Evo41 (n=29), 100 g AI/ha",~70%
same,"number of events, herbicide tolerance class 0 (41%-100% damaged leaf area)",[1]; 50 g AI/ha,0
same,"number of events, herbicide tolerance class 1 (16%-40% damaged leaf area)",[1]; 50 g AI/ha,0
same,"number of events, herbicide tolerance class 2 (6%-15% damaged leaf area)",[1]; 50 g AI/ha,0
same,"number of events, herbicide tolerance class 3 (0%-5% damaged leaf area)",[1]; 50 g AI/ha,7
same,"number of events, herbicide tolerance class 0 (41%-100% damaged leaf area)",[1]; 100 g AI/ha,3
same,"number of events, herbicide tolerance class 1 (16%-40% damaged leaf area)",[1]; 100 g AI/ha,4
same,"number of events, herbicide tolerance class 2 (6%-15% damaged leaf area)",[1]; 100 g AI/ha,1
same,"number of events, herbicide tolerance class 3 (0%-5% damaged leaf area)",[1]; 100 g AI/ha,21
same,share of tested events with high tolerance (5% or less bleached leaf area),"[2]; maize PfHPPDEvo41 (n=21), 100 g AI/ha",~70%
same,"number of events, herbicide tolerance class 0 (41%-100% damaged leaf area)",[2]; 25 g AI/ha,6
same,"number of events, herbicide tolerance class 1 (16%-40% damaged leaf area)",[2]; 25 g AI/ha,0
same,"number of events, herbicide tolerance class 2 (6%-15% damaged leaf area)",[2]; 25 g AI/ha,1
same,"number of events, herbicide tolerance class 3 (0%-5% damaged leaf area)",[2]; 25 g AI/ha,28
same,"number of events, herbicide tolerance class 0 (41%-100% damaged leaf area)",[2]; 50 g AI/ha,1
same,"number of events, herbicide tolerance class 1 (16%-40% damaged leaf area)",[2]; 50 g AI/ha,0
same,"number of events, herbicide tolerance class 2 (6%-15% damaged leaf area)",[2]; 50 g AI/ha,2
same,"number of events, herbicide tolerance class 3 (0%-5% damaged leaf area)",[2]; 50 g AI/ha,28
same,"number of events, herbicide tolerance class 0 (41%-100% damaged leaf area)",[2]; 100 g AI/ha,4
same,"number of events, herbicide tolerance class 1 (16%-40% damaged leaf area)",[2]; 100 g AI/ha,0
same,"number of events, herbicide tolerance class 2 (6%-15% damaged leaf area)",[2]; 100 g AI/ha,2
same,"number of events, herbicide tolerance class 3 (0%-5% damaged leaf area)",[2]; 100 g AI/ha,15
same,herbicide tolerance,"[3]; most soybean T1 plants expressing PfHPPD-Evo33, 25 g AI/ha",high tolerance
same,"number of events, herbicide tolerance class 0 (41%-100% damaged leaf area)",[3]; 6.25 g AI/ha,1
same,"number of events, herbicide tolerance class 1 (16%-40% damaged leaf area)",[3]; 6.25 g AI/ha,0
same,"number of events, herbicide tolerance class 2 (6%-15% damaged leaf area)",[3]; 6.25 g AI/ha,0
same,"number of events, herbicide tolerance class 3 (0%-5% damaged leaf area)",[3]; 6.25 g AI/ha,11
same,"number of events, herbicide tolerance class 0 (41%-100% damaged leaf area)",[3]; 25 g AI/ha,1
same,"number of events, herbicide tolerance class 1 (16%-40% damaged leaf area)",[3]; 25 g AI/ha,0
same,"number of events, herbicide tolerance class 2 (6%-15% damaged leaf area)",[3]; 25 g AI/ha,2
same,"number of events, herbicide tolerance class 3 (0%-5% damaged leaf area)",[3]; 25 g AI/ha,13
same,"number of events, herbicide tolerance class 0 (41%-100% damaged leaf area)",[3]; 50 g AI/ha,0
same,"number of events, herbicide tolerance class 1 (16%-40% damaged leaf area)",[3]; 50 g AI/ha,4
same,"number of events, herbicide tolerance class 2 (6%-15% damaged leaf area)",[3]; 50 g AI/ha,0
same,"number of events, herbicide tolerance class 3 (0%-5% damaged leaf area)",[3]; 50 g AI/ha,0
same,"number of events, herbicide tolerance class 0 (41%-100% damaged leaf area)",[3]; 75 g AI/ha,0
same,"number of events, herbicide tolerance class 1 (16%-40% damaged leaf area)",[3]; 75 g AI/ha,4
same,"number of events, herbicide tolerance class 2 (6%-15% damaged leaf area)",[3]; 75 g AI/ha,0
same,"number of events, herbicide tolerance class 3 (0%-5% damaged leaf area)",[3]; 75 g AI/ha,0
same,Efficacy (%) Euphorbia heterophylla,[4]; (A) 25 g ai/ha,15%
same,Efficacy (%) Euphorbia heterophylla,[4]; (A) 75 g ai/ha,35%
